The values below are quoted from earlier work in US20240165275A1, “STABLE FORMULATIONS OF INDOCYANINE GREEN” (PROVEPHARM LIFE SOLUTIONS, priority 2021, published 2024).

The conditions of data set [1]: stored at 4° C. in the dark.
The conditions of data set [2]: after 10 hours of storage in water and direct light.

`CC1(C)C(/C=C/C=C/C=C/C=C2\N(CCCCS(=O)(=O)[O-])c3ccc4ccccc4c3C2(C)C)=[N+](CCCCS(=O)(=O)[O-])c2ccc3ccccc3c21.[Na+]` [ICG, Indocyanine green]: the stability on storage result in data set [1] was “stable for three days”. Also, in data set [1] (three days), the fluorescence intensity lost is listed as 20%. Moreover, in data set [2], the “reduction of absorbance at spectral peak” value was 10%.
